Row | melting point [°C] | SMILES
1 | 205 to 207 | O=C(O)c1ccc(Cl)cc1Nc1cccc(Br)c1
2 | 199 to 200 | Brc1ccc2c(c1)oc1cc(Br)ccc12
3 | 294 to 296 | CC1(NC2=NS(=O)(=O)c3sc(Cl)cc3N2)CCC1
4 | 165 to 167 | O=C(Nc1ccccc1)N1C[C@@H](P(c2ccccc2)c2ccccc2)[C@H](P(c2ccccc2)c2ccccc2)C1
5 | 80 to 89 | COC(=O)C=CC(C)Oc1ccc(OCc2ccccc2)cc1 (centres undefined)
6 | 116 to 117 | COc1cccc(C2CCCCNC2=O)c1 (centres undefined)
7 | 178 | O=C1CCC(c2ccccc2)(c2ccccc2)[C@@H]2CN(C(=O)Cc3ccccc3N3CCCC3)C[C@H]12 (racemic)
8 | 172 to 174 | CCCCNC(=O)c1cccc(-c2ccnc3c(C(=O)c4cccs4)cnn23)c1
9 | 167 to 168 | O=C(O)c1c(O)cccc1OCCC(c1ccccc1)(c1ccccc1)c1ccccc1
10 | 179 | CCS(=O)(=O)N(C(C)=O)c1cc(-n2nc(C(F)(F)F)n(C)c2=O)c(F)cc1C#N
11 | 121 to 122 | NC(=O)CCCCC1CCCCC1
12 | 82 to 85 | CCCCCS(=O)(=O)NC(=O)/C=C/c1cc(OCCOC)nn1Cc1ccc(Cl)cc1Cl
13 | 62 to 68 | CC(C)CCCCCCCC=CC1CC(=O)N(NC(=O)CCc2cc(C(C)(C)C)c(O)c(C(C)(C)C)c2)C1=O (centres undefined)
14 | 195 to 196 | CCNC1CN(c2c(F)cc3c(=O)c(C(=O)O)cn(-c4nc(N)c(F)cc4F)c3c2Br)C1
15 | 223 to 224 | Cn1ncc(/C=C/C(=O)Nc2ccc(Cc3nnco3)cc2)c1-c1ccc(F)cc1
16 | 134 to 136 | OC1c2cc(OCc3ccc4ccccc4n3)ccc2OCCC1Oc1cccnc1 (centres undefined)
17 | 52 to 53 | CCOC(=O)C(Cc1ccc(C)c(OC(F)(F)C(F)F)c1)C(=O)c1ccc(F)cc1 (centres undefined)
18 | 119 to 120 | O=C(O)C(=O)c1ccc(OCCOC2CCc3ccccc3C2)cc1 (centres undefined)
19 | 146 | O=C(O)[C@@H](Cc1ccccc1)NS(=O)(=O)c1ccc2ccccc2c1
20 | 65 to 67 | O=C(Oc1ccccc1)c1cc(Br)nn1-c1ncccc1Cl
21 | 112 to 115 | Cc1cnc(C)n1CC(=O)c1ccc(-c2ccc(N3C[C@H](Cn4ccnn4)OC3=O)cc2F)cn1
22 | 126 to 127 | O=C1CCN(Cc2ccc(C(F)(F)F)cc2)CC1C(c1ccc(F)cc1)c1ccc(F)cc1 (centres undefined)

The remaining lines, values behind:

Row | SMILES | melting point [°C]
23 | COc1cc2oc(=O)c(C)c(C)c2cc1OCCN1CCN(c2cccc3[nH]ccc23)CC1 | 201 to 202
24 | O=C(CCCc1cccnc1)N1CCC(CC(c2ccccc2)c2ccccc2)CC1 | 98 to 100
25 | Cn1c2ccccc2c2oc(C(N)=O)cc(=O)c21 | > 295
26 | N#Cc1nn(-c2c(Cl)cc(C(F)(F)F)cc2Cl)cc1C1(C(F)(F)C(F)(F)F)CC1 | 105 to 106
27 | CCOC(=O)c1ccc(C(=O)c2ccc(OC)cc2)cc1 | 74 to 81
28 | CN(c1ccccc1)P(N)(N)=O | 97 to 99
29 | N#Cc1ccc2[nH]c(C(=O)C34CC5CC(CC(C5)C3)C4)cc2c1 | 250 to 252
30 | CCCCc1nc2ccn(Cc3ccc(C(=O)O)cc3)c(=O)c2n1Cc1ccc(-c2ccccc2-c2nnn[nH]2)cc1 | > 300
31 | CCCc1c(OCCCOc2ccc(C(=O)CCC(=O)O)cc2F)ccc(C(C)=O)c1O | 142 to 144
32 | COc1ccc(-n2cc(C(F)(F)F)nc2-c2ccc(OC)nc2)cc1 | 90 to 92
33 | O=C(c1cc2cc(OCc3ccccc3)ccc2[nH]1)C12CC3CC(CC(C3)C1)C2 | 189 to 191
34 | O=[N+]([O-])c1cnccc1NCc1ccccc1 | 100 to 104
35 | Clc1cccc(N2CCN(CCCCOc3ccc4cn[nH]c4c3)CC2)c1Cl | 101 to 103
36 | CON=C(C(=O)O)c1nc(NC=O)ccc1Cl | 151 to 154
37 | N=C1SCCN1c1ccc(N)cc1[N+](=O)[O-] | 138 to 139
38 | COc1ccccc1Oc1c(NS(=O)(=O)c2ccc(C(C)(C)C)cc2)nc(NCCN(C)C)nc1OCCOC1CCCCO1 (centres undefined) | 82 to 86
39 | Nc1ncnc2c1c(-c1cccc(Cl)c1)cn2-c1ccccc1 | 173 to 175
40 | COC(=O)c1cc(N)cc(-n2cccc2)c1 | 116 to 118
41 | O=C1c2ccccc2C(=O)N1CC(=O)N1c2ccccc2N(Cc2cccc3ccccc23)C(=O)[C@H]2CCC[C@H]21 (relative stereo) | 266 to 270
42 | COc1ccc(C2(O)c3ccccc3C(=O)N2CCc2cccc(OC)c2)cc1 (centres undefined) | 119
43 | Cc1ccc(-c2nc(Oc3ccccc3)nc(-c3ccc(C)cc3C)n2)c(C)c1 | 96 to 98
44 | NC(=O)c1cc(-n2cncn2)ccc1N | 216 to 218
45 | CNC(=O)n1sc(SCc2ccc(Cl)cc2)nc1=O | 140
46 | CC1=NN(CC(C)C)S(=O)(=O)c2sc(S(N)(=O)=O)cc21 | 140 to 142
47 | CN1CCCCCC1=NC(=O)Nc1c(Cl)cccc1Cl | 143 to 144
48 | CC(NC(=O)Cc1cc(F)cc(F)c1)C(=O)NC1(c2ccccc2)NC(=O)Cc2ccccc21 (centres undefined) | 200 to 205
49 | CCOC(=O)/C=C/c1ccc(C2COc3c(C)c(C)c(NC(=O)CC(C)(C)C)c(C)c32)cc1 (centres undefined) | 176 to 177

Source: a melting point compilation (Tetko et al.; mined from patent text by program, amines drawn as free bases though some values may be those of a salt)
